{"source": "patent US20210038730A1", "about": "“PEPTIDE NANOFIBERS” (UNIVERSITY OF PORTSMOUTH HIGHER EDUCATION CORPORATION, priority 2018, published 2021)", "key": {"[1]": {"test": "Critical aggregation concentration, pyrene assay", "assay_type": "physicochemical", "conditions": "PBS pH 7.4, 37° C., 24 hours", "experimental": "Critical aggregation concentration (CAC) of TPGnRH was determined using pyrene ^1-4 and thioflavin T ^5, 6. The peptide solutions (3.5-700 μM) were prepared in phosphate-buffered saline (PBS, 0.01 M, pH 7.4) either by a dilution of a stock solution at 700 μM or solutions prepared at the required concentration. In the pyrene assay, pyrene was dissolved in methanol at 250 μM, dispersed into a black 96-well plate, and methanol was evaporated overnight. TPGnRH solutions were added to pyrene and incubated at 37° C. for 24 hours under stirring. Fluorescence spectra was recorded λex at 334 nm. For the thioflavin T assay, peptide solutions were added to freshly prepared thioflavin Tat 50 μM. All peptide samples were incubated during 5 minutes at room temperature and fluorescence was measured at λex at 450 nm and λem at 482 nm."}, "[2]": {"test": "Isoelectric point by acid-base titration", "assay_type": "physicochemical", "experimental": "Both peptides were characterised by electrospray ionisation (positive/negative) mass spectrometry (MS), nuclear magnetic resonance (NMR), RP-HPLC, attenuated total reflectance Fourier-transformed infrared (ATR-FTIR) spectroscopy, thermogravimetric analysis (TGA) and differential scanning calorimetry (DSC). The isoelectric point of the peptides was also determined using an acid-base titration."}, "[3]": {"test": "Release from 3D printed cellulose-sodium alginate bioinks", "assay_type": "physicochemical", "conditions": "PBS", "experimental": "Peptide nanofibers were embedded in cellulose nanocrystals and sodium alginate hydrogels. Cellulose nanocrystals were synthesised by sulphuric acid degradation (45% w/v, 150 mls) of cellulose (15 g, Western Hemlock) at 50° C. over 90 minutes under stirring. Cold-deionised water was used to quench reaction and acid was removed by centrifugation (4,000 rpm, 10 minutes). Cellulose nanocrystals were dialysed (12-14 kDa for cytochrome C, Medicell Ltd) over 5 L with 6 changes over 24 hours. Resulting suspension was probe sonicated (400 watt, 23% amplitude, 10 minutes) in 50 mLs aliquots. The resulting suspension was centrifuged (4,000 rpm, 10 minutes) and supernatant was stored in the refrigerator. Cellulose nanocrystals (CNCs, 4.5% w/w, 2 g) were loaded onto a syringe attached to a three-way valve, where a syringe loaded sodium alginate (6% w/w in 4.6% glucose, 1.7 g). The CNCs were injected in the sodium alginate syringe and mixed 10 times (in each direction). Sample was collected in one syringe and a new syringe containing calcium chloride (0.1M, 0.9 mL). Sample was pushed into calcium chloride and mixed 5 times (in each direction) prior collecting the gel in one syringe and loading in cartridges. Peptide nanofibers (5 mg) were dispersed in 0.9 mL of 0.1M calcium chloride and mixed as above when needed. Release of paclitaxel loaded and TPGnRH gels in PBS (1×, 7.4, 6 mLs) was quantified as per HPLC method described previously (Example 7, Table 2). After an initial burst release, a controlled release profile is observed with gradual slow release over days. Resulting inks can be utilised for the production of nanofiber loaded implants for tumour patients."}, "[4]": {"test": "Enzymatic stability in MDA-MB-231 cell homogenates", "procedure": "Fresh blood, obtained from adult male Wistar rats, was collected in sterile the 170 I.U. lithium heparin-coated tubes (Vacutainer, BD Bioscience, UK). Blood was centrifuged immediately at 2,000 g for 15 minutes (4° C.) and supernatant was collected and diluted to 50% (v/v) with PBS. Livers and brains were obtained from adult male Wistar rats, and the tissues were blotted to dryness, weighed, sliced into pieces, and homogenised with ice-cold PBS (in 2 mL of buffer g^−1 of tissue) using the glass homogeniser. Then, tissue homogenates were centrifuged at 4,300 g for 1 hour (4° C.) and the supernatants collected. Glioblastoma cell homogenates were prepared using U-87 MG cells. Cells were cultured in Eagle's Minimum Essential Medium (EMEM) supplemented with 10% (v/v) heat-inactivated fetal bovine serum (FBS), 1% (v/v) of non-essential amino acids (NEAA) and 1 mM of sodium pyruvate in T75 flasks with a surface area of 75 cm^2 and maintained in a humidified atmosphere of 5% CO2 at 37° C. Breast cancer cell homogenates were prepared using MDA-MB-231 cells. Cells were cultured in Dulbecco's Modified Eagle Medium (DMEM) supplemented with high levels of glucose (4.5 g/L), 10% (v/v) heat-inactivated fetal bovine serum (FBS), 1% (v/v) of non-essential amino acids (NEAA) and penicillin and streptomycin (500 units/mL) in T75 flasks with a surface area of 75 cm^2 and maintained in a humidified atmosphere of 5% CO2 at 37° C. Media was changed for both cell lines every 3 to 4 days. After reaching confluence, cells were washed twice with Hank's Balanced Salt Solution (HBSS) and incubated with ˜2 mL of TrypLE Enzyme at 37° C. for ˜3 minutes. Then, complete media were added, and cells were centrifuged at 1,000 rpm for 5 minutes in C-28A centrifuge (Boeco, Germany). U-87 MG or MDA-MB-231 cells (˜10×10^6 cells mL^−1) were re-suspended in ice-cold PBS, and homogenised with a 2×5 second pulses with the probe sonicator (UP200S Ultrasonic processor, SciMed, 200 watts, amplitude of 60%). Cell debris were removed by centrifugation at 2,000 rpm for 5 minutes (Jouan B4i, Thermo Scientific, Paisley, UK). Supernatant was collected and stored at −80° C. Total protein concentration in the homogenates was determined using the Bradford assay with bovine serum albumin as a standard. Diluted plasma, tissue or cell homogenates were pre-warmed during ˜30 minutes at 37° C. Peptide stock solutions (Glu-GnRH, goserelin acetate and TPGnRH, 5 mM in PBS, 500 μL) were prepared and added to the homogenate solutions (120 μL). PAX-loaded nanofibers prepared at a ratio of 1:7.36 [PAX:TPGnRH consisting of 3 μmol (2.56 mg mL^−1) of PAX, 22.02 μmol (31.46 mg mL^−1) of TPGnRH], as previously described, and further diluted in PBS to achieve a concentration of 5 mM of TPGnRH and 500 nM of PAX (120 μL) were added to the homogenates. At various time intervals, an aliquot was collected (80 μL) and added to ice-cold ACN (80 μL) to quench the enzymatic activity. Samples were stored at −80° C. for at least 3 hours to maximise protein precipitation. Samples were vortexed for 15 minutes, centrifuged for 15 minutes at 12,000 rpm, and the supernatants were collected and analysed by RP-HPLC."}, "[5]": {"test": "In vivo pharmacokinetic study, intravenous", "conditions": "mice", "procedure": "(§1) At 5 and 60 minutes, mice were killed and the blood and brain were harvested. Blood samples (0.5-0.7 mL per mouse) were collected into evacuated, sterile, spray coated with tripotassium ethylenediamine tetraacetic acid (3.6 mg), medical grade PET tubes. […] Brain was weighted and homogenised with ice-cold PBS (1×, 7.4) using a 3 mL glass homogeniser. Plasma (100 μL) and brain homogenate (˜800 μL) were extracted with equal volumes of ice-cold acetonitrile three times and samples were dried using a centrifugal concentrator (SPD1010 SpeedVac System, ThermoSavant, Renfrewshire, United Kingdom) under vacuum over 2 hours and 4 hours respectively. Samples were orbitally agitated using a SciQuip Microplate Shaker attached to a tube adapter for 1.5-2 mL tubes (10 mm) for 10 minutes prior being centrifuged at 8,000 rpm for 5 minutes. Supernatants were pipetted in 0.2 mL amber vials and was quantified by reverse phase-HPLC. Analysis was conducted on Onyx Monolithic C18 column (4.6 mm×10+100 mm, 5 μm pore size) with a gradient method (Table 13) using an Agilent 1200 Series HPLC system (Agilent Technologies, Cheadle, UK). […] Injection volume was 40 μL, and the detection was performed at 220 nm and 280 nm."}, "GnRH-R": {"target": "T1, GnRH-R (Homo sapiens, UniProt P30968)", "T1 construct": "The intracellular cAMP was quantified using the Direct cAMP ELISA kit; endogenous in cells", "T1 sequence (P30968 1-328)": "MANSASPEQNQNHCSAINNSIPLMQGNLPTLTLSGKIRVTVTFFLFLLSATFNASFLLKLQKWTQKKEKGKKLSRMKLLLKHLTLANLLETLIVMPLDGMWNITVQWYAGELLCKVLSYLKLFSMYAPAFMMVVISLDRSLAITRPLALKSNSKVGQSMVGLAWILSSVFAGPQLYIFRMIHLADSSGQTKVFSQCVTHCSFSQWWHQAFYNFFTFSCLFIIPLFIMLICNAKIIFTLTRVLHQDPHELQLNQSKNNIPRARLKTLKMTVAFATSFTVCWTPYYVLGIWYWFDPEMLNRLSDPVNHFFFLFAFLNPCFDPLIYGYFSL", "test": "Forskolin-induced intracellular cAMP ELISA", "assay_type": "cell-based", "conditions": "forskolin 5 μM, 15 minutes"}, "in vivo": {"test": "in vivo", "conditions": "male, BALB/c, mouse, iv, 35 mg/kg", "procedure": "as §1"}, "[6]": {"test": "Enzymatic stability in rat plasma", "conditions": "50% (v/v) rat plasma", "procedure": "Fresh blood, obtained from adult male Wistar rats, was collected in sterile the 170 I.U. lithium heparin-coated tubes (Vacutainer, BD Bioscience, UK). Blood was centrifuged immediately at 2,000 g for 15 minutes (4° C.) and supernatant was collected and diluted to 50% (v/v) with PBS. Livers and brains were obtained from adult male Wistar rats, and the tissues were blotted to dryness, weighed, sliced into pieces, and homogenised with ice-cold PBS (in 2 mL of buffer g^−1 of tissue) using the glass homogeniser. Then, tissue homogenates were centrifuged at 4,300 g for 1 hour (4° C.) and the supernatants collected. Glioblastoma cell homogenates were prepared using U-87 MG cells. Cells were cultured in Eagle's Minimum Essential Medium (EMEM) supplemented with 10% (v/v) heat-inactivated fetal bovine serum (FBS), 1% (v/v) of non-essential amino acids (NEAA) and 1 mM of sodium pyruvate in T75 flasks with a surface area of 75 cm^2 and maintained in a humidified atmosphere of 5% CO2 at 37° C. Breast cancer cell homogenates were prepared using MDA-MB-231 cells. Cells were cultured in Dulbecco's Modified Eagle Medium (DMEM) supplemented with high levels of glucose (4.5 g/L), 10% (v/v) heat-inactivated fetal bovine serum (FBS), 1% (v/v) of non-essential amino acids (NEAA) and penicillin and streptomycin (500 units/mL) in T75 flasks with a surface area of 75 cm^2 and maintained in a humidified atmosphere of 5% CO2 at 37° C. Media was changed for both cell lines every 3 to 4 days. After reaching confluence, cells were washed twice with Hank's Balanced Salt Solution (HBSS) and incubated with ˜2 mL of TrypLE Enzyme at 37° C. for ˜3 minutes. Then, complete media were added, and cells were centrifuged at 1,000 rpm for 5 minutes in C-28A centrifuge (Boeco, Germany). U-87 MG or MDA-MB-231 cells (˜10×10^6 cells mL^−1) were re-suspended in ice-cold PBS, and homogenised with a 2×5 second pulses with the probe sonicator (UP200S Ultrasonic processor, SciMed, 200 watts, amplitude of 60%). Cell debris were removed by centrifugation at 2,000 rpm for 5 minutes (Jouan B4i, Thermo Scientific, Paisley, UK). Supernatant was collected and stored at −80° C. Total protein concentration in the homogenates was determined using the Bradford assay with bovine serum albumin as a standard. Diluted plasma, tissue or cell homogenates were pre-warmed during ˜30 minutes at 37° C. Peptide stock solutions (Glu-GnRH, goserelin acetate and TPGnRH, 5 mM in PBS, 500 μL) were prepared and added to the homogenate solutions (120 μL). […] Samples were vortexed for 15 minutes, centrifuged for 15 minutes at 12,000 rpm, and the supernatants were collected and analysed by RP-HPLC."}, "[7]": {"test": "Circular dichroism, temperature and dilution stability of nanofibers", "assay_type": "physicochemical", "conditions": "CD, 15 to 50° C., dilutions 1:10-1:100", "experimental": "Secondary structure was assessed using circular dichroism (CD). TPGnRH solutions (70 or 700 μM) were prepared in aqueous 0.9% sodium chloride and analysed at 20±0.1° C. using Applied Photophysics Pi180 spectropolarimeter (Surrey, UK). For the temperature-dependent studies, the peptide was incubated at a range of temperature (15 to 50° C.) and the spectra were collected at 5° C. intervals. To investigate the effect of dilution, peptide solutions were diluted in 0.9% (w/v) sodium chloride solution at 20° C. Data were collected every 1 nm over the wavelength range of 200-360 nm. X-ray diffraction (XRD) studies were carried out on stalks prepared by suspending drops of TPGnRH solutions (70 or 700 μM) between the ends of the wax-coated capillaries and allowing them to dry at room temperature. Stalks were vertically mounted onto a four-axis goniometer of a FR-E+X-Ray diffractomer (Rigaku, Sevenoaks, UK)."}, "[8]": {"conditions": "human, MDA-MB-231 breast cancer cell homogenate"}}, "data": [{"smiles": "CCCCCCCCCCCCCCCC(=O)Oc1ccc(C[C@H](NC(=O)[C@H](CO)NC(=O)[C@H](Cc2c[nH]c3ccccc23)NC(=O)[C@H](Cc2c[nH]cn2)NC(=O)[C@@H](N)CCC(=O)O)C(=O)NCC(=O)N[C@@H](CC(C)C)C(=O)N[C@@H](CCCNC(=N)N)C(=O)N2CCC[C@H]2C(=O)NCC(N)=O)cc1", "note": "[TPGnRH, Tyrosine (O-Palmitoyl)-Glu-GnRH]", "values": [{"measurement": "CAC (self-assembly into aggregates)", "setting": "[1]", "value": 7, "unit": "µM"}, {"measurement": "Isoelectric point", "setting": "[2]", "value": "6.28±0.51"}, {"measurement": "% release from 3D printed bioink", "setting": "[3]; 0 minutes", "value": 0, "unit": "%"}, {"measurement": "% release from 3D printed bioink", "setting": "[3]; 1 minutes", "value": "15.4 ± 9.6", "unit": "%"}, {"measurement": "% release from 3D printed bioink", "setting": "[3]; 5 minutes", "value": "15.4 ± 7.8", "unit": "%"}, {"measurement": "% release from 3D printed bioink", "setting": "[3]; 10 minutes", "value": "16.3 ± 11.5", "unit": "%"}, {"measurement": "% release from 3D printed bioink", "setting": "[3]; 15 minutes", "value": "15.4 ± 4.6", "unit": "%"}, {"measurement": "% release from 3D printed bioink", "setting": "[3]; 30 minutes", "value": "16.4 ± 4.9", "unit": "%"}, {"measurement": "% release from 3D printed bioink", "setting": "[3]; 45 minutes", "value": "14.7 ± 6.9", "unit": "%"}, {"measurement": "% release from 3D printed bioink", "setting": "[3]; 60 minutes", "value": "19.7 ± 8.5", "unit": "%"}, {"measurement": "% release from 3D printed bioink", "setting": "[3]; 90 minutes", "value": "20.6 ± 4.6", "unit": "%"}, {"measurement": "% release from 3D printed bioink", "setting": "[3]; 120 minutes", "value": "21.8 ± 9.4", "unit": "%"}, {"measurement": "% release from 3D printed bioink", "setting": "[3]; 240 minutes", "value": "20.6 ± 10.7", "unit": "%"}, {"measurement": "% release from 3D printed bioink", "setting": "[3]; 360 minutes", "value": "22.6 ± 7.4", "unit": "%"}, {"measurement": "% release from 3D printed bioink", "setting": "[3]; 1110 minutes", "value": "24.5 ± 7.9", "unit": "%"}, {"measurement": "% release from 3D printed bioink", "setting": "[3]; 1440 minutes", "value": "28.5 ± 9.8", "unit": "%"}, {"measurement": "% release from 3D printed bioink", "setting": "[3]; 2760 minutes", "value": "32.1 ± 9.7", "unit": "%"}, {"measurement": "Plateau", "setting": "[4]; MDA-MB-231 cell homogenates", "value": 325.8, "unit": "µg/mL"}, {"measurement": "k", "setting": "[4]; MDA-MB-231 cell homogenates", "value": 2.224, "unit": "min⁻¹"}, {"measurement": "AUC(0-t) at 4.03 mM", "setting": "[4]; [8]", "value": 105000, "unit": "µg·h/mL"}, {"measurement": "C0 at 4.03 mM", "setting": "[4]; [8]", "value": 710, "unit": "µg/mL"}, {"measurement": "tolerability", "setting": "[5]; intravenous 35 mg kg^−1, no immediate signs of toxicity, no gross alterations in liver, spleen, lungs, kidneys", "value": "well tolerated"}, {"measurement": "dose in blood", "setting": "[5]; intravenous, after 1 hour", "value": "~6 % of dose"}, {"measurement": "effect on forskolin-induced cAMP intracellular accumulation", "setting": "GnRH-R", "value": "counteracted the forskolin-induced cAMP intracellular accumulation"}, {"measurement": "tissue level at time at 5 min", "setting": "in vivo; brain", "value": "3080 ± 1010", "unit": "ng/g"}, {"measurement": "tissue level at time at 1 h", "setting": "in vivo; brain", "value": "3470 ± 80", "unit": "ng/g"}, {"measurement": "level at 5 min", "setting": "in vivo; plasma", "value": "545 ± 342", "unit": "µg/mL"}, {"measurement": "level at 1 h", "setting": "in vivo; plasma", "value": "45600 ± 10100", "unit": "ng/mL"}, {"measurement": "k", "setting": "[6]; analyte in brackets of label", "value": 0.0937, "unit": "min⁻¹"}, {"measurement": "remaining at 8 h, 4.03 mM", "setting": "[6]; male, Wistar, rat", "value": "> 80", "unit": "%"}, {"measurement": "temperatures at which nanofibers are physically stable", "setting": "[7]", "value": "< 40", "unit": "°C"}]}]}
